Holding throughout (assay): inhibition of tumour cell growth, NCI panel, 48 h
Assay [1] relates to A549 NSCLC.
Assay [2] relates to M14 melanoma.
The subject of assay [3] is SNB-75 CNS.
Assay [4] relates to MDA-MB-435.
For assay [5], the system named is BT-549 breast.
In assay [6] the test system is NCI-H23 lung.
For assay [7], the system named is SK-MEL-5 melanoma.
Assay [8] concerns SN12C renal.
Assay [9] has as its system OVCAR-3 ovarian.
The test system of assay [10] is SW-620 colon.

Structures are written as SMILES.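 Five compound concentrations were applied to cells in 96-well plates for 48 hours; endpoints were derived by simple linear interpolation of the resulting dose-response curve. TGI marks complete inhibition of growth.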 Some results are limits rather than exact numbers.

Consider 13 molecules from PubChem BioAssay (NCI).

Consider `O=S(=O)(O)c1cc(Nc2ccnc3ccccc23)c2c(S(=O)(=O)O)cc(S(=O)(=O)O)cc2c1`, for which the TGI in assay [1], in assay [2], in assay [3], in assay [4], in [5] and in [6] was over 100 µM each time. Also, the TGI in assay [7], in assay [8], in [9] and in assay [10] was over 100 µM in each case.

`Cc1oncc1NC1=CC(=O)C(=O)c2ccccc21`: the TGI in assay [1] was 15.7 µM; in [2], 17 µM; in assay [3], 27.2 µM; in assay [4], 3.51 µM; in assay [5], 25 µM; in assay [6], 17.6 µM. In addition, the TGI turned out to be 3.68 µM in assay [7], 17.1 µM in assay [8], 4.97 µM in assay [9] and 17.1 µM in assay [10].

Regarding `COc1ccc2oc(=Nc3ccc(F)cc3)c(C(N)=O)cc2c1`, the TGI was over 100 µM in [1]; over 100 µM in assay [2]; 29.5 µM in assay [3]; over 100 µM in assay [4]; over 100 µM in [5]; over 100 µM in [6]. Further, the TGI in assay [7], in assay [8], in assay [9] and in assay [10] was over 100 µM in each case.

Consider `COC(=O)c1c(O)ccc2c1c1c(n2Cc2ccccc2OC)C(=O)c2ccccc2C1`, for which the TGI in assay [1], in assay [2], in assay [3], in assay [4], in assay [5] and in assay [6] was over 100 µM each time. Besides, the TGI in assay [7] is over 100 µM; in [8], 74.9 µM; in assay [9] it was over 100 µM; in [10], over 100 µM.

Turning to `CN(C)CCNC(=O)c1cccc2[nH]c(-c3ccncc3)nc12`, the TGI in [1] was over 44.9 µM; in [2], 3.39 µM; in [3], 26.5 µM; in assay [4] it was 3.63 µM; in assay [5], 34.8 µM; in assay [6] it was 32.1 µM. Besides, the TGI in assay [7] is 7.27 µM; in assay [8], over 76.3 µM; in assay [9], over 46.9 µM; in assay [10], 13 µM.

Turning to `CCCC(=O)Nc1cc(/C=C/C(=O)N2CC(CCl)c3c2cc([N+](=O)[O-])c2ccccc32)n(C)c1` (stereo not given), the TGI in [1] is over 100 µM; in assay [2] it was over 100 µM; in assay [3] it was 97.7 µM; in assay [4], over 100 µM; in assay [5] it was over 100 µM; in [6] it was over 100 µM. Besides, the TGI in assay [7], in assay [8], in [9] and in assay [10] was over 100 µM each time.

As to `COc1ccc(N2C(N)=C(C#N)C(C#N)(C#N)C2c2cccc([N+](=O)[O-])c2)cc1` (stereo not given), the TGI was found to be 34.2 µM in [1]; 35.6 µM in assay [2]; 35.1 µM in [3]; 31.9 µM in assay [4]; 32.3 µM in assay [5]; 30.8 µM in assay [6]. The TGI in assay [7] is 27.4 µM; in [8], 30.8 µM; in assay [9], 30.1 µM; in assay [10], 26 µM.

For `O=C(O)CN(CC(=O)O)Cc1ccn(-c2cccc(-n3ccc(CN(CC(=O)O)CC(=O)O)n3)n2)n1`, the TGI in assay [1], in [2], in assay [3], in [4], in [5] and in [6] was over 100 µM throughout. The TGI in assay [7], in assay [8], in [9] and in [10] was over 100 µM in each case.

On to `COc1nc2ccc(CNc3ccc(C(=O)O)cc3)cc2nc1OC`, for which the TGI in [1], in [2], in assay [3], in assay [4], in assay [5] and in assay [6] was over 10 µM in each case. For the same molecule, the TGI in assay [7], in assay [8], in [9] and in [10] was over 10 µM in each case.

As for `O=C(CCc1ccc(O)c(O)c1)NCCc1ccc(O)c(O)c1`, the TGI in [1] is over 100 µM; in assay [2], over 100 µM; in assay [3], over 100 µM; in assay [4], 31.8 µM; in [5], over 100 µM; in assay [6], over 100 µM. The TGI in assay [7], in assay [8], in assay [9] and in assay [10] was over 100 µM in each case.

For the molecule `CCOc1cc2c(cc1O)CC[C@@H]1[C@@H]2CC[C@]2(C)C(OS(=O)OC3CC[C@@H]4[C@H]5CCc6cc(O)c(OCC)cc6[C@@H]5CC[C@@]34C)CC[C@@H]12` (stereo not given in full), the TGI in assay [1] is 11.3 µM; in assay [2], 2.58 µM; in assay [3], 34.4 µM; in assay [4], 0.548 µM; in assay [5], 13.6 µM; in [6] it was 14 µM. The TGI in [7] is 3.84 µM; in assay [8] it was 28.9 µM; in assay [9], 0.813 µM; in [10], 11 µM.

With `CCC/C(Cl)=N\OC(=O)Nc1ccc(F)c([N+](=O)[O-])c1`, the TGI in [1] stood at 66.4 µM; in assay [2], 30.4 µM; in assay [3], 33 µM; in assay [4], 30.4 µM; in assay [5] it was 22.4 µM; in assay [6] it was 28.1 µM. The TGI in assay [7] is 35.2 µM; in assay [8], 72.2 µM; in assay [9], 28.9 µM; in assay [10], 39.6 µM.

On to `COC(=O)C(Cc1ccccc1)NC(=O)c1ccc(CNC(=S)NCc2cccc(CNC(=S)NCc3ccccc3)c2)cc1` (stereo not given), for which the TGI in assay [1], in [2], in [3], in [4], in assay [5] and in [6] was over 62.5 µM in each case. Moreover, the TGI in assay [7], in [8], in assay [9] and in assay [10] was over 62.5 µM throughout.
